Measurements reported in US20040214851A1, “Compositions and methods for induction of opioid receptors” (3M Innovative Properties Company, priority 2003, published 2004).
Where two headings read alike, the source gives them in different places.

What was measured:
[1] = tested on: Opioid Growth Factor Receptor (OGFr); assay: Induction of OGFr mRNA in human PBMCs (GeneChip microarray); format: cell-based
Method: (§1) Opioid receptor inducing compounds (ORICs) were dissolved in dimethyl sulfoxide (DMSO, Sigma Chemical Company) at 5 mM concentration. PBMCs were incubated for one hour in X-VIVO 20 medium (Cambrex Bio Science, Walkersville, Md.) at 37° C. in a 5% CO2 incubator prior to incubation with ORIC prepared in DMSO or with DMSO alone (as a control). The amount of DMSO was kept below 0.1% of the total incubation volume.
(§2) PBMCs were incubated for 15, 30, 60, 120 minutes with ORIC 1. […] DMSO-treated control samples were incubated for 1 hour, 2 hours, 5 hours, 9 hours, and 16 hours.
(§3) At the end of the specified incubation time, cells were lysed and total RNA extracted using the Qiagen RNeasy MidiKit (Qiagen, Inc., Valencia, Calif.). RNA was quantified using absorbance at 260. Quality of RNA was determined from the ratio of absorbance measured at OD260 and OD280 and from the ratio of 18S and 28S bands in RNA 6000 Nano Chip gels run on the Agilent 2100 Bioanalyzer (Agilent Technologies, Inc., Palo Alto, Calif.).
RNA was reverse transcribed to cDNA using a Superscript cDNA synthesis kit (Invitrogen Corporation, Carlsbad, Calif.) using an HPLC-purified T7-(dT)24 primer (Genset SA, Paris, France). Labeled cRNA was prepared from double-stranded cDNA by in vitro transcription using an Enzo BioArray High Yield RNA Transcript Labeling Kit in the presence of biotin-11-CTP and biotin-16-UTP (Enzo Diagnostics, Inc., Farmingdale, N.Y.), and purified using an RNeasy MiniKit (Qiagen, Inc.). 10 or 15 μg of biotinylated cRNA were fragmented and hybridized to HG-U95A or U133A GeneChip® arrays (Affymetrix, Santa Clara, Calif.) containing probe sets representing 12,000 genes (HG-U95A) or 22,000 genes (U133A). Chips were hybridized, washed, and stained according to the Affymetrix protocols.
(§4) Images were scanned using the Agilent Gene Array Scanner (Agilent Technologies, Inc., Palo Alto, Calif.), and processed using Affymetrix Microarray Suite (MS 4.0 or MS 5.0) software. The total fluorescence intensity of each image was scaled to 500 to enable comparison of different images. The image at each time point was analyzed relative to the appropriate control in order to calculate changes in expression for each gene. Changes in gene expression were deemed significant if the p value for detection and change in expression were <0.05.

[2] = tested on: μ-opioid receptor; assay: Induction of μ-opioid receptor mRNA in human PBMCs (GeneChip microarray); format: cell-based
Method: as §1, §2, §3
RNA was reverse transcribed to cDNA using a Superscript cDNA synthesis kit (Invitrogen Corporation, Carlsbad, Calif.) using an HPLC-purified T7-(dT)24 primer (Genset SA, Paris, France). Labeled cRNA was prepared from double-stranded cDNA by in vitro transcription using an Enzo BioArray High Yield RNA Transcript Labeling Kit in the presence of biotin-11-CTP and biotin-16-UTP (Enzo Diagnostics, Inc., Farmingdale, N.Y.), and purified using an RNeasy MiniKit (Qiagen, Inc.). […]
as §4, with “Changes in gene expression were deemed significant if the p value for detection and change in expression were <0.05.” left out

[3] = tested on: melanoma cell line B16-F10; assay: B16-F10 melanoma lung tumor model in C57/BL6 mice; format: in vivo; settings: B16-F10 i.v.
Method: C57/BL6 mice are injected on Day 0 intravenously with melanoma cell line B16-F10 (5×10^5). On day 5 and lasting through day 19, mice are injected intraperitoneally every other day with either (a) PBS (control), (b) 10 mg/kg of ORIC2, (c) 10 mg/kg [Met^5]-enkephalin, or (d) both.
On Day 20, half the mice are sacrificed and the lungs are removed and weighed. Percent inhibition of lung tumor growth is determined according to the formula:
Placebo weight−Treatment weight×100 Placebo weight

[4] = tested on: lung cancer; assay: Human subjects with lung cancer, tumor size by CT scan and survival; format: in vivo
Method: Human subjects with lung cancer are injected intravenously with a placebo (control), ORIC5 (10 mg/kg), or both ORIC5 (10 mg/kg) and OGF (1 mg/kg) three times a week for eight weeks. Tumor size is measured by CT scan.

[5] = human PBMCs, 5 μM ORIC 1 (FIG. 1), 1 μM ORIC 2, 5 μM ORIC 3, 0.1 μM ORIC 4, (FIG. 2)
[6] = human PBMCs, 1 μM ORIC 2, 5 μM ORIC 3, 0.1 μM ORIC 4, FIG. 3

SMILES | induction of OGFr (mRNA) [1, 5] | induction of the μ-opioid receptor (mRNA) [2, 6] | induction of OGFr (mRNA) [1] | other results
CCOCc1nc2c(N)nc3c(c2n1CC(C)(C)O)CCCC3 [ORIC2, 4-amino-2-(ethoxymethyl)-α,α-dimethyl-6,7,8,9-tetrahydro-1H-imidazo[4,5-c]quinoline-1-ethanol] | induction | induction |  | inhibition of tumor growth in the lung ([3]; 10 mg/kg i.p. every other day, day 5 to 19, lungs weighed Day 20, vs placebo): increased inhibition of tumor growth in the lung; survival ([3]; monitored through Day 75, vs placebo): enhanced survival
CCCCc1nc2c(N)nc3ccccc3c2n1CCCCNS(C)(=O)=O [ORIC4, N-[4-(4-amino-2-butyl-1H-imidazo[4,5-c]quinolin-1-yl)butyl]methanesulfonamide] | induction | induction |  | 
Cc1nc2c(N)nc3c(c2n1CCCCNC(=O)N1CCOCC1)CCCC3 [ORIC5, N-[4-(4-amino-2-methyl-6,7,8,9,-tetrahydro-1H-imidazo[4,5-c]quinolin-1-yl)butyl]morpholine-4-carboxamide] |  |  | induction | induction of the μ-opioid receptor (mRNA) [2]: induction; tumor size by CT scan ([4]; i.v. three times a week for eight weeks, at eight weeks vs prior to treatment): measurably smaller; five-year survival rate ([4]; vs control group): greater
CC(C)Cn1cnc2c(N)nc3ccccc3c21 [ORIC1, 1-(2-methylpropyl)-1H-imidazo[4,5-c]quinolin-4-amine] |  |  | induction | 
